From the supplement of paper PMC11208160

assay: recombinant UMI read abundance after kanamycin selection (control-corrected) (log10(CPM+1)); higher = more efficient recombination; extreme values may be limits of the assay; sequences stand for … in AGTGCAGAGAAAATCGGCCAGTTTTCTCTGCCTGCAGTCCGCATGCCGTGGGACCCCTTGGGTTCTAACCTGTTGCCTAGATTTATGCAGCGGACTGCCTTTCTCCCAAAGTGATAAACCGG…AGGTTGGTTTCACT; site = the 11-nt donor
Summary of the method: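 The measure is log10(CPM+1) for recombinant UMIs. These were PCR-amplified across the donor–target junction and sequenced after Escherichia coli carrying a donor and donor-binding-loop pair library and a target plasmid with T7-inducible IS621 bridge recombinase was plated on IPTG (0.07 mM) plus kanamycin or unselected. CPM were averaged over two replicates and scaled by control-derived factors.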
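Note: IS621 bridge recombinase in Escherichia coli cells against a fixed T5 target plasmid.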

| Sequence | recombinant UMI read abundance (log10) |
| --- | --- |
| GCTACTGCATGGACCGGTTTTCCCGGTAATCCGTATTTGCG (site GCTACTGCTGG) | 0 |
| GCTACTGCATGGACCGGTTTTCCCGGTAATCCGTATTTGCG (site GCTACTGCTTG) | 1.35 |
| GCTACTGCATGGACCGGTTTTCCCGGTAATCCGTATTTGTC (site GCTACTGCTGA) | 1.83 |
| GCTACTGCATGGACCGGTTTTCCCGGTAATCCGTATTTGTC (site GCTACTGCTGC) | 0 |
| GCTACTGCATGGACCGGTTTTCCCGGTAATCCGTATTTGTC (site GCTACTGCTGG) | 0.571 |
| GCTACTGCATGGACCGGTTTTCCCGGTAATCCGTATTTGTC (site GCTACTGCTGT) | 0.512 |
| GCTAGAACATGGACCGGTTTTCCCGGTAATCCGTATTTGAG (site ACTAGAACTCT) | 0.959 |
| GCTAGAACATGGACCGGTTTTCCCGGTAATCCGTATTTGAG (site CCTAGAACTCT) | 0.439 |
| GCTAGAACATGGACCGGTTTTCCCGGTAATCCGTATTTGAG (site GCTAGAACTCT) | 1.83 |
| GCTAGAACATGGACCGGTTTTCCCGGTAATCCGTATTTGAG (site TCTAGAACTCT) | 0.815 |
| GCTAGGCCATGGACCGGTTTTCCCGGTAATCCGTATTTGAG (site GCTAGGCCTCT) | 0.0384 |
| GCTATACCATGGACCGGTTTTCCCGGTAATCCGTATTTGTA (site GCTATACCTTA) | 0.0042 |
| GCTATCTCATGGACCGGTTTTCCCGGTAATCCGTATTTGAA (site GCTATCTCTTT) | 1.86 |
| GCTCCTGCATGGACCGGTTTTCCCGGTAATCCGTATTTGCC (site GCTACTGCTGG) | 0.902 |
| GCTCCTGCATGGACCGGTTTTCCCGGTAATCCGTATTTGCC (site GCTCCTGCTGG) | 0.921 |
| GCTCCTGCATGGACCGGTTTTCCCGGTAATCCGTATTTGCC (site GCTGCTGCTGG) | 0 |
| GCTCCTGCATGGACCGGTTTTCCCGGTAATCCGTATTTGCC (site GCTTCTGCTGG) | 0 |
| GCTGGCCCATGGACCGGTTTTCCCGGTAATCCGTATTTGAT (site GCTAGCCCTAT) | 0.0226 |
| GCTGGCCCATGGACCGGTTTTCCCGGTAATCCGTATTTGAT (site GCTCGCCCTAT) | 0.00439 |
| GCTGGCCCATGGACCGGTTTTCCCGGTAATCCGTATTTGAT (site GCTGGCCCTAT) | 0.00519 |
| GCTGGCCCATGGACCGGTTTTCCCGGTAATCCGTATTTGAT (site GCTTGCCCTAT) | 0 |
| GCTGGTCCATGGACCGGTTTTCCCGGTAATCCGTATTTGTA (site GCTGGTCCTTA) | 0.297 |
| GCTGTCCCATGGACCGGTTTTCCCGGTAATCCGTATTTGGC (site GCTGTCCCTGC) | 0 |
| GCTGTTCCATGGACCGGTTTTCCCGGTAATCCGTATTTGGT (site GATGTTCCTAC) | 0.0117 |
| GCTGTTCCATGGACCGGTTTTCCCGGTAATCCGTATTTGGT (site GCTGTTCCTAC) | 0 |

| Sequence | recombinant UMI read abundance (log10) |
| --- | --- |
| GCTGTTCCATGGACCGGTTTTCCCGGTAATCCGTATTTGGT (site GGTGTTCCTAC) | 0.0107 |
| GCTGTTCCATGGACCGGTTTTCCCGGTAATCCGTATTTGGT (site GTTGTTCCTAC) | 0 |
| GCTTGCCCATGGACCGGTTTTCCCGGTAATCCGTATTTGAT (site ACTTGCCCTAT) | 0 |
| GCTTGCCCATGGACCGGTTTTCCCGGTAATCCGTATTTGAT (site CCTTGCCCTAT) | 0.0733 |
| GCTTGCCCATGGACCGGTTTTCCCGGTAATCCGTATTTGAT (site GATTGCCCTAT) | 0.0145 |
| GCTTGCCCATGGACCGGTTTTCCCGGTAATCCGTATTTGAT (site GCATGCCCTAT) | 0.0036 |
| GCTTGCCCATGGACCGGTTTTCCCGGTAATCCGTATTTGAT (site GCCTGCCCTAT) | 0.0885 |
| GCTTGCCCATGGACCGGTTTTCCCGGTAATCCGTATTTGAT (site GCGTGCCCTAT) | 0.0338 |
| GCTTGCCCATGGACCGGTTTTCCCGGTAATCCGTATTTGAT (site GCTAGCCCTAT) | 0.00265 |
| GCTTGCCCATGGACCGGTTTTCCCGGTAATCCGTATTTGAT (site GCTCGCCCTAT) | 0.249 |
| GCTTGCCCATGGACCGGTTTTCCCGGTAATCCGTATTTGAT (site GCTGGCCCTAT) | 0.00346 |
| GCTTGCCCATGGACCGGTTTTCCCGGTAATCCGTATTTGAT (site GCTTACCCTAT) | 0.00934 |
| GCTTGCCCATGGACCGGTTTTCCCGGTAATCCGTATTTGAT (site GCTTCCCCTAT) | 0.0974 |
| GCTTGCCCATGGACCGGTTTTCCCGGTAATCCGTATTTGAT (site GCTTGACCTAT) | 0.0101 |
| GCTTGCCCATGGACCGGTTTTCCCGGTAATCCGTATTTGAT (site GCTTGCACTAT) | 0.00776 |
| GCTTGCCCATGGACCGGTTTTCCCGGTAATCCGTATTTGAT (site GCTTGCCCTAA) | 0.00772 |
| GCTTGCCCATGGACCGGTTTTCCCGGTAATCCGTATTTGAT (site GCTTGCCCTAC) | 0.00771 |
| GCTTGCCCATGGACCGGTTTTCCCGGTAATCCGTATTTGAT (site GCTTGCCCTAG) | 0 |
| GCTTGCCCATGGACCGGTTTTCCCGGTAATCCGTATTTGAT (site GCTTGCCCTAT) | 0.0141 |
| GCTTGCCCATGGACCGGTTTTCCCGGTAATCCGTATTTGAT (site GCTTGCCCTCT) | 0.0236 |
| GCTTGCCCATGGACCGGTTTTCCCGGTAATCCGTATTTGAT (site GCTTGCCCTGT) | 0 |
| GCTTGCCCATGGACCGGTTTTCCCGGTAATCCGTATTTGAT (site GCTTGCCCTTT) | 0.0171 |
| GCTTGCCCATGGACCGGTTTTCCCGGTAATCCGTATTTGAT (site GCTTGCGCTAT) | 0.0038 |
| GCTTGCCCATGGACCGGTTTTCCCGGTAATCCGTATTTGAT (site GCTTGCTCTAT) | 0.571 |
| GCTTGCCCATGGACCGGTTTTCCCGGTAATCCGTATTTGAT (site GCTTGGCCTAT) | 0.0246 |

| Sequence | recombinant UMI read abundance (log10) |
| --- | --- |
| GCTTGCCCATGGACCGGTTTTCCCGGTAATCCGTATTTGAT (site GCTTGTCCTAT) | 0.00271 |
| GCTTGCCCATGGACCGGTTTTCCCGGTAATCCGTATTTGAT (site GCTTTCCCTAT) | 0 |
| GCTTGCCCATGGACCGGTTTTCCCGGTAATCCGTATTTGAT (site GGTTGCCCTAT) | 0.0122 |
| GCTTGCCCATGGACCGGTTTTCCCGGTAATCCGTATTTGAT (site GTTTGCCCTAT) | 0.00461 |
| GCTTGCCCATGGACCGGTTTTCCCGGTAATCCGTATTTGAT (site TCTTGCCCTAT) | 0.0164 |
| GCTTGCGCATGGACCGGTTTTCCCGGTAATCCGTATTTGAT (site GCTTGCACTAT) | 0.734 |
| GCTTGCGCATGGACCGGTTTTCCCGGTAATCCGTATTTGAT (site GCTTGCCCTAT) | 0.00863 |
| GCTTGCGCATGGACCGGTTTTCCCGGTAATCCGTATTTGAT (site GCTTGCGCTAT) | 1.72 |
| GCTTGCGCATGGACCGGTTTTCCCGGTAATCCGTATTTGAT (site GCTTGCTCTAT) | 0 |
| GGAACCCCATGGACCGGTTTTCCCGGTAATCCGTATTTGTC (site GGAACCCCTGA) | 0.334 |
| GGAAGCACATGGACCGGTTTTCCCGGTAATCCGTATTTGTG (site GGAAGCACTCA) | 1.4 |
| GGAATTCCATGGACCGGTTTTCCCGGTAATCCGTATTTGCA (site GGAATTCCTTG) | 0 |
| GGACCACCATGGACCGGTTTTCCCGGTAATCCGTATTTGCG (site GGACCACCTCG) | 0.0308 |
| GGACGCTCATGGACCGGTTTTCCCGGTAATCCGTATTTGAG (site GGACGCTCTCT) | 1.55 |
| GGACGTCCATGGACCGGTTTTCCCGGTAATCCGTATTTGCC (site GGACGTCCTGG) | 1.75 |
| GGACTAGCATGGACCGGTTTTCCCGGTAATCCGTATTTGCG (site GGACTAGCTCG) | 2.05 |
| GGACTCACATGGACCGGTTTTCCCGGTAATCCGTATTTGCA (site GGACTCACTTG) | 2.37 |
| GGAGCCCCATGGACCGGTTTTCCCGGTAATCCGTATTTGCG (site GGAGCCCCTCG) | 0.00647 |
| GGAGCGACATGGACCGGTTTTCCCGGTAATCCGTATTTGGA (site GGAGCGACTTC) | 0.237 |
| GGAGCGGCATGGACCGGTTTTCCCGGTAATCCGTATTTGGT (site GGAGAGGCTAC) | 0 |
| GGAGCGGCATGGACCGGTTTTCCCGGTAATCCGTATTTGGT (site GGAGCGGCTAC) | 0.387 |
| GGAGCGGCATGGACCGGTTTTCCCGGTAATCCGTATTTGGT (site GGAGGGGCTAC) | 0.00705 |
| GGAGCGGCATGGACCGGTTTTCCCGGTAATCCGTATTTGGT (site GGAGTGGCTAC) | 0.101 |
| GGAGGTTCATGGACCGGTTTTCCCGGTAATCCGTATTTGAA (site GGAGGTTCTTT) | 1.66 |
| GGAGTGCCATGGACCGGTTTTCCCGGTAATCCGTATTTGGT (site GGAGTGACTAC) | 0.00343 |
